Measurements from patent US20260015356A1, “ADENOSINE RECEPTOR ANTAGONISTS AND USES THEREOF” (Teon Therapeutics, Inc., priority 2022, published 2026).

Tested on: MC38 tumor model
Experiment: MC38 tumor model (fibrosis)
Type: in vivo
Settings: no dose or method printed

`CCCn1c(=O)c2c(nc(-c3cnn(Cc4cccc(C(F)(F)F)c4)c3)n2C(C)=O)n(CC)c1=O` [Compound 1, 7-acetyl-3-ethyl-1-propyl-8-(1-(3-(trifluoromethyl)benzyl)-1H-pyrazol-4-yl)-3,7-dihydro-1H-purine-2,6-dione] was tested, and the “fibrosis in a MC38 tumor model” value was “reduces fibrosis”.
